pIC50: −log10 of the molar value. Values after ≈ are worked out from the molar mass of the structure shown. Where two headings read alike, the source gives them in different places.
Experiments:
[1] = system: enterococci; assay: Minimum inhibitory concentration, microdilution broth method, enterococci; assay type: cell-based; settings: Mueller-Hinton broth, 18-22 hours at 35° C.; for MIC: Enterococcus faecalis
In short: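 MIC by microdilution, NCCLS M7-A5. Media: MH broth (staph, enterococci); MH + 5% lysed horse blood (strep). Strains incl. methicillin-, penicillin- and/or vancomycin-resistant clinical isolates.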

[2] = target: T1, S. aureus Enopyruvyl-UPD-N-acetylglucosamine reductase, Mur B (Staphylococcus aureus, UniProt P61431); assay: biochemical; settings: (S) S. aureus enzyme; for IC50: read-out: MurB IC50 (converted)
T1 sequence (P61431 1-307): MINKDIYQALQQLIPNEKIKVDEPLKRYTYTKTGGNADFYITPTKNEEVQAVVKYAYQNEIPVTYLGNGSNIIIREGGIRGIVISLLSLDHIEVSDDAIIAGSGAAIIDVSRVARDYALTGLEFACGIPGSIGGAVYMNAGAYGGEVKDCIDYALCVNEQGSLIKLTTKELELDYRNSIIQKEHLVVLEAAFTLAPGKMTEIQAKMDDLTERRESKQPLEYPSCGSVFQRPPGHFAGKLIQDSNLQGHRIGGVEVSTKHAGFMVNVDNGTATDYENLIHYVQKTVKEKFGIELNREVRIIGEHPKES

[3] = target: E. coli Enopyruvyl-UPD-N-acetylglucosamine reductase, Mur B (Escherichia coli, UniProt P08373); assay: biochemical; settings: (E) E. coli enzyme; for IC50: read-out: MurB IC50 (converted)
Sequence of E. coli Enopyruvyl-UPD-N-acetylglucosamine reductase, Mur B (P08373 whole entry): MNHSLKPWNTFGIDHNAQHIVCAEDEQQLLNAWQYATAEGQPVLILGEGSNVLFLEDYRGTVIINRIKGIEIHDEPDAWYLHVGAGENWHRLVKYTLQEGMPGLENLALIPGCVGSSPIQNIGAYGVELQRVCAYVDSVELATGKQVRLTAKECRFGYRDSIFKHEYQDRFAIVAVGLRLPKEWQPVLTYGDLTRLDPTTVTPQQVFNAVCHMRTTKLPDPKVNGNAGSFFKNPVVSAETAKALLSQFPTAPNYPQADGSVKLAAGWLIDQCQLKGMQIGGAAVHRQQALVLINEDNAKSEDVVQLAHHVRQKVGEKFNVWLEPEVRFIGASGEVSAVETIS

[4] = target: T2, S. aureus Uridine-diphosphate-N-acetvimuramoyl: L-alanine lipase, MurC (Staphylococcus aureus, UniProt Q2FXJ0); assay: biochemical; settings: for IC50 / MurC IC50: (S) S. aureus enzyme; for IC50: read-out: MurC IC50 (converted)
T2 sequence (Q2FXJ0 1-437): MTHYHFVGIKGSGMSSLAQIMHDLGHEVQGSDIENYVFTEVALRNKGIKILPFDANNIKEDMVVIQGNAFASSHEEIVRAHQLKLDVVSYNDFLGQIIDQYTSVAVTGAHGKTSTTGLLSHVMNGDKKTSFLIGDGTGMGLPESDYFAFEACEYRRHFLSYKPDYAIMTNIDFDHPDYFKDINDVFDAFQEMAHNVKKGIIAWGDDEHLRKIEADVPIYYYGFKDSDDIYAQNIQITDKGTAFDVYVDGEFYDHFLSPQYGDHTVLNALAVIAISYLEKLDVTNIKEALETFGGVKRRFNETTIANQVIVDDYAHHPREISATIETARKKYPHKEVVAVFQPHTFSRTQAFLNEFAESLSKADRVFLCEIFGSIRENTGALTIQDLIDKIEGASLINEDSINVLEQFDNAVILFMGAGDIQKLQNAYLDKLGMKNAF
In short: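 MurC assay: enzyme (E. coli 100 μg/mL, S. aureus 70 μg/mL stock) with L-Ala and test compound, pre-incubated 10 min at 23 °C, then UDP-MurNac added, 10 min at 37 °C. Phosphate released detected by malachite green–molybdate at 660 nm; IC50 by linear regression.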

[5] = E. faecalis GC 2242, read-out: MIC E. faecalis GC 2242
[6] = E. faecalis GC 4555, read-out: MIC E. faecalis GC 4555

Row | SMILES | MIC [1, 5] | MIC [1, 6] | IC50 [2] | IC50 [3] | IC50 [4] | MIC E. faecalis GC 2242 ([1]; E. faecalis GC 2242) | MIC E. faecalis GC 4555 ([1]; E. faecalis GC 4555) | MurB IC50 [2] | MurB IC50 [3] | MurC IC50 [4] | pIC50 [4]
1 | Cc1ccccc1-c1ccc(/C=C2\OC(=O)C(c3cccc(Cl)c3)=C2O)cc1C [Example 28] | 2 µg/mL (≈ 4.96 µM) | 4 µg/mL (≈ 9.93 µM) | 7.45 µM | 7.45 µM | > 62.1 µM |  |  |  |  |  | 
2 | Cc1ccccc1-c1ccc(/C=C2\OC(=O)C(c3cc(Cl)cc(Cl)c3)=C2O)cc1C [Example 29] | 0.5 µg/mL (≈ 1.14 µM) | 2 µg/mL (≈ 4.57 µM) | 4.57 µM | 4.57 µM | 54.9 µM |  |  |  |  |  | 
3 | Cc1cc(/C=C2\OC(=O)C(c3cccc(Cl)c3)=C2O)ccc1-c1ccccc1Cl [Example 30] | 4 µg/mL (≈ 9.45 µM) | 4 µg/mL (≈ 9.45 µM) | 4.72 µM | 4.72 µM | > 59.1 µM |  |  |  |  |  | 
4 | Cc1cc(C=C2OC(=O)C(c3cc(Cl)cc(Cl)c3)=C2O)ccc1-c1ccccc1Cl [Example 31] |  |  |  |  |  | 1 µg/mL (≈ 2.18 µM) | 2 µg/mL (≈ 4.37 µM) | 2 (E); 2 (S) μg/mL | 2 (E); 2 (S) μg/mL | >25 (S) μg/mL | 
5 | COc1cc(/C=C2\OC(=O)C(c3cccc(Cl)c3)=C2O)ccc1-c1ccccc1C(F)(F)F [Example 32] | 4 µg/mL (≈ 8.46 µM) | 8 µg/mL (≈ 16.9 µM) | 6.34 µM | 12.7 µM | 25.4 µM |  |  |  |  |  | 
6 | COc1cc(/C=C2\OC(=O)C(c3cc(Cl)cc(Cl)c3)=C2O)ccc1-c1ccccc1C(F)(F)F [Example 33] | 1 µg/mL (≈ 1.97 µM) | 2 µg/mL (≈ 3.94 µM) | 3.94 µM | 3.94 µM | > 49.3 µM |  |  |  |  |  | 
7 | Cc1cc(/C=C2\OC(=O)C(c3cc(Cl)cc(Cl)c3)=C2O)ccc1-c1ccccc1OS(C)(=O)=O [Example 39] |  |  |  |  |  | 4 µg/mL (≈ 7.73 µM) | 8 µg/mL (≈ 15.5 µM) | 4 µg/mL | 8 µg/mL | 8 (S) μg/mL | 
8 | O=C1O/C(=C\c2ccc(Cl)cc2)C(O)=C1c1ccc2ccccc2c1 [Example 43] | 4 µg/mL (≈ 11.5 µM) | 16 µg/mL (≈ 45.9 µM) | 14.3 µM | 17.2 µM | 60.2 µM |  |  |  |  |  | 
9 | O=C1O/C(=C\c2cccc3ccccc23)C(O)=C1c1cc(Cl)cc(Cl)c1 [Example 70] | 2 µg/mL (≈ 5.22 µM) | 2 µg/mL (≈ 5.22 µM) | 13 µM | 18.3 µM | 20.9 µM |  |  |  |  |  | 
10 | O=C1O/C(=C\c2cccc3ccccc23)C(O)=C1c1ccc(C(F)(F)F)cc1 [Example 71] | 4 µg/mL (≈ 10.5 µM) | 8 µg/mL (≈ 20.9 µM) | 26.2 µM | 26.2 µM |  |  |  |  |  |  | 4.28
11 | COc1cccc(C2=C(O)/C(=C/c3cccc4ccccc34)OC2=O)c1 [Example 72] | > 128 µg/mL | > 128 µg/mL | 58.1 µM | 61 µM | > 72.6 µM |  |  |  |  |  | 
12 | COC(=O)c1ccc(C2=C(O)/C(=C/c3cccc4ccccc34)OC2=O)cc1 [Example 74] | > 128 µg/mL | > 128 µg/mL | 26.9 µM | 59.1 µM | 48.3 µM |  |  |  |  |  | 
13 | CCOC(=O)c1cccc(C2=C(O)C(=Cc3cccc4ccccc34)OC2=O)c1 [Example 75] |  |  |  |  |  | >128 µg/mL | 64 µg/mL (≈ 166 µM) | 24 µg/mL | > 25 µg/mL | 20 µg/mL | 
14 | O=Cc1cccc(C2=C(O)/C(=C/c3cccc4ccccc34)OC2=O)c1 [Example 76] | > 128 µg/mL | > 128 µg/mL | 14.6 µM | 20.4 µM | 52.6 µM |  |  |  |  |  | 
15 | O=C1O/C(=C\c2cccc3ccccc23)C(O)=C1c1cccc(C=NO)c1 [Example 77] |  |  |  |  |  | >128 µg/mL | >128 µg/mL | 10 µg/mL | 21 µg/mL | 15 µg/mL | 
16 | CN(C)c1ccc(/C=C2\OC(=O)C(c3ccc(Cl)cc3)=C2O)c2ccccc12 [Example 78] | 64 µg/mL (≈ 163 µM) | 64 µg/mL (≈ 163 µM) | 33.2 µM | 7.66 µM | 53.6 µM |  |  |  |  |  | 
17 | CN(C)c1ccc(/C=C2\OC(=O)C(c3cc(Cl)cc(Cl)c3)=C2O)c2ccccc12 [Example 79] | 4 µg/mL (≈ 9.38 µM) | 8 µg/mL (≈ 18.8 µM) | 2.35 µM | 14.1 µM | 56.3 µM |  |  |  |  |  | 
18 | CN(C)c1ccc(C=C2OC(=O)C(c3cc(Cl)cc(Cl)c3)=C2O)c2ccccc12 [Example 80] |  |  |  |  |  | 4 µg/mL (≈ 9.38 µM) | 8 µg/mL (≈ 18.8 µM) | 1 µg/mL | 3 µg/mL | 18 (S) μg/mL | 
19 | CN(C)c1ccc(/C=C2\OC(=O)C(c3ccc(C(F)(F)F)cc3)=C2O)c2ccccc12 [Example 81] | 16 µg/mL (≈ 37.6 µM) | 32 µg/mL (≈ 75.2 µM) | 35.3 µM | 54.1 µM | 37.6 µM |  |  |  |  |  | 
20 | O=C1O/C(=C\c2cccc(-c3cccc(Cl)c3)c2)C(O)=C1c1cccc(Cl)c1 [Example 134] | 4 µg/mL (≈ 9.77 µM) | 8 µg/mL (≈ 19.5 µM) | 4.89 µM |  | 51.3 µM |  |  |  | 4 µg/mL |  | 
21 | O=C1O/C(=C\c2cccc(-c3cc(Cl)cc(Cl)c3)c2)C(O)=C1c1cc(Cl)cc(Cl)c1 [Example 136] | 0.5 µg/mL (≈ 1.05 µM) | 1 µg/mL (≈ 2.09 µM) | 4.18 µM |  | > 52.3 µM |  |  |  | 3 µg/mL |  | 
22 | O=C1O/C(=C\c2ccccc2-c2ccc(Cl)cc2)C(O)=C1c1ccc(Cl)cc1 [Example 137] | 4 µg/mL (≈ 9.77 µM) | 4 µg/mL (≈ 9.77 µM) | 7.33 µM | 51.3 µM | 56.2 µM |  |  |  |  |  | 
23 | O=C1O/C(=C\c2ccc(Cl)cc2)C(O)=C1c1ccc(-c2ccccc2)c(F)c1 [Example 138] | 4 µg/mL (≈ 10.2 µM) | 8 µg/mL (≈ 20.4 µM) | 7.64 µM | 56 µM | 20.4 µM |  |  |  |  |  | 
24 | O=C1O/C(=C\c2ccccc2-c2cccc(Cl)c2)C(O)=C1c1cccc(Cl)c1 [Example 140] | 4 µg/mL (≈ 9.77 µM) | 4 µg/mL (≈ 9.77 µM) | 7.33 µM | 9.77 µM | 19.5 µM |  |  |  |  |  | 
25 | O=C1O/C(=C\c2ccccc2-c2ccc(Cl)c(Cl)c2)C(O)=C1c1ccc(Cl)c(Cl)c1 [Example 141] | 0.5 µg/mL (≈ 1.05 µM) | 1 µg/mL (≈ 2.09 µM) | 4.18 µM |  | > 52.3 µM |  |  |  | 2 (E); 2 (S) μg/mL |  | 
26 | O=C1O/C(=C\c2cc(C(F)(F)F)ccc2Cl)C(O)=C1c1ccc(N2CCOCC2)c(F)c1 [Example 142] |  |  |  |  |  | >128 µg/mL | >128 µg/mL | 21 µg/mL | 10 µg/mL | >25 (S) μg/mL | 
